Assays:
[1] = target: Tyrosine-protein kinase Mer (Homo sapiens) (UniProt Q12866); test: Inhibition of MERTK (unknown origin) assessed as remaining activity at 1 uM by Kinome scan method relative to control
[2] = target: MAP kinase-interacting serine/threonine-protein kinase 1 (Homo sapiens) (UniProt Q9BUB5); test: Inhibition of MKNK1 (unknown origin) assessed as remaining activity at 1 uM by Kinome scan method relative to control
[3] = target: Serine/threonine-protein kinase 38-like (Homo sapiens) (UniProt Q9Y2H1); test: Inhibition of NDR2 (unknown origin) assessed as remaining activity at 1 uM by Kinome scan method relative to control
[4] = target: Proto-oncogene tyrosine-protein kinase receptor Ret (Homo sapiens) (UniProt P07949); test: Inhibition of RET (unknown origin) assessed as remaining activity at 1 uM by Kinome scan method relative to control
[5] = system: Tyrosine-protein kinase ABL1 (Homo sapiens), P00519 [Q252H]; test: Inhibition of human ABL1 Q252H mutant assessed as residual activity at 1 uM using Poly(Ala,Glu,Lys,Tyr)6:2:5:1 as substrate in presence of 33P-ATP by ProQinase assay relative to control
[6] = system: Tyrosine-protein kinase ABL1 (Homo sapiens), P00519 [T315I]; test: Inhibition of human ABL1 T315I mutant assessed as residual activity at 1 uM using Poly(Ala,Glu,Lys,Tyr)6:2:5:1 as substrate in presence of 33P-ATP by ProQinase assay relative to control
[7] = target: RAC-alpha serine/threonine-protein kinase (Homo sapiens) (UniProt P31749); test: Inhibition of human AKT1 assessed as residual activity at 1 uM using RBER-GSK3(14-27) as substrate in presence of 33P-ATP by ProQinase assay relative to control
[8] = target: Dual specificity protein kinase CLK3 (Homo sapiens) (UniProt P49761); test: Inhibition of human CLK3 assessed as residual activity at 1 uM using RB-S6P as substrate in presence of 33P-ATP by ProQinase assay relative to control
[9] = target: Ephrin type-A receptor 8 (Homo sapiens) (UniProt P29322); test: Inhibition of human EPHA8 assessed as residual activity at 1 uM using polyEy as substrate in presence of 33P-ATP by ProQinase assay relative to control
[10] = target: Focal adhesion kinase 1 (Homo sapiens) (UniProt Q05397); test: Inhibition of human FAK (2 to 1052 residues) assessed as residual activity at 1 uM using polyEY as substrate in presence of 33P-ATP by ProQinase assay relative to control
[11] = target: Tyrosine-protein kinase Fer (Homo sapiens) (UniProt P16591); test: Inhibition of human FER assessed as residual activity at 1 uM using polyEY as substrate in presence of 33P-ATP by ProQinase assay relative to control
[12] = target: Serine/threonine-protein kinase haspin (Homo sapiens) (UniProt Q8TF76); test: Inhibition of human GSG2 assessed as residual activity at 1 uM using histon H3 as substrate in presence of 33P-ATP by ProQinase assay relative to control
[13] = target: MAP kinase-interacting serine/threonine-protein kinase 1 (Homo sapiens) (UniProt Q9BUB5); test: Inhibition of human MKNK1 assessed as residual activity at 1 uM using RB-S6P as substrate in presence of 33P-ATP by ProQinase assay relative to control
[14] = target: cAMP-dependent protein kinase catalytic subunit PRKX (Homo sapiens) (UniProt P51817); test: Inhibition of human PRKX assessed as residual activity at 1 uM using RBER-GSK3(14-27) as substrate in presence of 33P-ATP by ProQinase assay relative to control
[15] = target: Receptor-interacting serine/threonine-protein kinase 2 (Homo sapiens) (UniProt O43353); test: Inhibition of human RIPK2 assessed as residual activity at 1 uM using RBER-CHKtide as substrate in presence of 33P-ATP by ProQinase assay relative to control
[16] = target: Proto-oncogene tyrosine-protein kinase ROS (Homo sapiens) (UniProt P08922); test: Inhibition of human ROS assessed as residual activity at 1 uM using poly(Ala,Glu,Lys,Tyr)6:2:5:1 as substrate in presence of 33P-ATP by ProQinase assay relative to control
[17] = target: SRSF protein kinase 1 (Homo sapiens) (UniProt Q96SB4); test: Inhibition of human SRPK1 assessed as residual activity at 1 uM using MBP as substrate in presence of 33P-ATP by ProQinase assay relative to control
[18] = target: T1, Serine/threonine-protein kinase TAO3 (Homo sapiens) (UniProt Q9H2K8); test: Inhibition of human TAOK3 assessed as residual activity at 1 uM using 3xChocktide-PKC(19-31) as substrate in presence of 33P-ATP by ProQinase assay relative to control
T1 sequence (whole entry): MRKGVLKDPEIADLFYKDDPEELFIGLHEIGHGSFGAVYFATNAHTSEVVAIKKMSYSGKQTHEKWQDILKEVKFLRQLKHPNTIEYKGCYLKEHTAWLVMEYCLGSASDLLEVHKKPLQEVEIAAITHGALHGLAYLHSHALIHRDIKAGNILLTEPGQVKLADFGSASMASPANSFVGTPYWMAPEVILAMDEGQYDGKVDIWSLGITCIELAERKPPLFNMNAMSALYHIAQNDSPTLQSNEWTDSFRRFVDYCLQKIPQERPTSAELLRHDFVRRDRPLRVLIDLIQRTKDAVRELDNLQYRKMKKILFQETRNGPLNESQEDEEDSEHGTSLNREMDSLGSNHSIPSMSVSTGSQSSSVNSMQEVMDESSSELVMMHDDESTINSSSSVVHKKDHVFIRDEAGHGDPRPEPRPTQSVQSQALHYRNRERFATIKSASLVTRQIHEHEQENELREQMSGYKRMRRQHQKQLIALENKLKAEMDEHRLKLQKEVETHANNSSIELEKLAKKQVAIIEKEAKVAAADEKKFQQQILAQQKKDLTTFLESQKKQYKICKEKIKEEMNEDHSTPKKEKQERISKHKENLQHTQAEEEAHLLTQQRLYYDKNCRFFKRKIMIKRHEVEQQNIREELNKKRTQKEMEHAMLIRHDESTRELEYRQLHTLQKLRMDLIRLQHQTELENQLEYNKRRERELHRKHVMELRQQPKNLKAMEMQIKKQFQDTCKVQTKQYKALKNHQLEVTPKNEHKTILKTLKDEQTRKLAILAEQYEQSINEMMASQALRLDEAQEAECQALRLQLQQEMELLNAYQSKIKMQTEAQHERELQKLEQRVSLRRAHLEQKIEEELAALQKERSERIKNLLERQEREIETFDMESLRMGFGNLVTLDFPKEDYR

[19] = target: TGF-beta receptor type-2 (Homo sapiens) (UniProt P37173); test: Inhibition of human TGFBR2 assessed as residual activity at 1 uM using RB-S6P as substrate in presence of 33P-ATP by ProQinase assay relative to control

MAP kinase-interacting serine/threonine-protein kinase 1 (Homo sapiens), sequence (Q9BUB5 whole entry, looked up): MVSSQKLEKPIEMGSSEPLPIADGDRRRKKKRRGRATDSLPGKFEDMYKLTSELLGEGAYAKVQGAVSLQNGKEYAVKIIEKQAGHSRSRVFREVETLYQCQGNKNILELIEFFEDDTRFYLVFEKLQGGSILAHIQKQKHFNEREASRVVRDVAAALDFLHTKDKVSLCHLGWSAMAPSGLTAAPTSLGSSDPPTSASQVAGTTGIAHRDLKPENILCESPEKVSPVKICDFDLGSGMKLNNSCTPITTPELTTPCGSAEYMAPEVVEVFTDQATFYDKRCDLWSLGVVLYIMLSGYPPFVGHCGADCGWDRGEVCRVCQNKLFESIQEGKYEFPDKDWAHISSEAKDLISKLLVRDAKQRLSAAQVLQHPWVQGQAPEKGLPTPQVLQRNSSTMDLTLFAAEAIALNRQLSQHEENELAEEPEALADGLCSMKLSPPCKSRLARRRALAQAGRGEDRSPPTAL
Focal adhesion kinase 1 (Homo sapiens), sequence (Q05397 2-1052 limits assumed): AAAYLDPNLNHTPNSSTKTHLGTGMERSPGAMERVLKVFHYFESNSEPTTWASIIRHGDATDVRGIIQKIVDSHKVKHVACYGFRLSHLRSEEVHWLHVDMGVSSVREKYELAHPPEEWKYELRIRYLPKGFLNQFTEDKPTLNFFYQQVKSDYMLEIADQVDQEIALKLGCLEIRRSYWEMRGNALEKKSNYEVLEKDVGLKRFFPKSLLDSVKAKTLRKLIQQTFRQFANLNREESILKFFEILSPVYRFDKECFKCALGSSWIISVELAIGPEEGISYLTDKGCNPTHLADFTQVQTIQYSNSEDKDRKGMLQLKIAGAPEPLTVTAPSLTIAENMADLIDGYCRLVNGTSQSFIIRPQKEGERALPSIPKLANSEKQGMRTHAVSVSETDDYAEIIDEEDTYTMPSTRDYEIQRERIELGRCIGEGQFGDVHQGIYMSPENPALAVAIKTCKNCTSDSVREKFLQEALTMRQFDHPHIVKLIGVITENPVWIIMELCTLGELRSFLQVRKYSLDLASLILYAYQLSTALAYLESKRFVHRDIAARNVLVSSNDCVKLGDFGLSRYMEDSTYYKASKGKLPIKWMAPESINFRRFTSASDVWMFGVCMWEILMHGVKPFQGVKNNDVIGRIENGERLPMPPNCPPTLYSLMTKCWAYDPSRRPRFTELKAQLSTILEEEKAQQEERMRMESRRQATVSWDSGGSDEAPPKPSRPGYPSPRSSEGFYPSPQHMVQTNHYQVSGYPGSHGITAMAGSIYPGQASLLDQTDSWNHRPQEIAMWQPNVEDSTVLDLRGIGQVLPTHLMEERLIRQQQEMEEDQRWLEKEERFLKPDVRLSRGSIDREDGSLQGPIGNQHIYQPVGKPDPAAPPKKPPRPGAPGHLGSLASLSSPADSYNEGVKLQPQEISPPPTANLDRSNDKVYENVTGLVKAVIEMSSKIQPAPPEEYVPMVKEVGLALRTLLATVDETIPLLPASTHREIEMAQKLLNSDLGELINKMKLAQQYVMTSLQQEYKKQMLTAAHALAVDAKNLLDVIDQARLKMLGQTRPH
Dual specificity protein kinase CLK3 (Homo sapiens), sequence (P49761 whole entry, looked up): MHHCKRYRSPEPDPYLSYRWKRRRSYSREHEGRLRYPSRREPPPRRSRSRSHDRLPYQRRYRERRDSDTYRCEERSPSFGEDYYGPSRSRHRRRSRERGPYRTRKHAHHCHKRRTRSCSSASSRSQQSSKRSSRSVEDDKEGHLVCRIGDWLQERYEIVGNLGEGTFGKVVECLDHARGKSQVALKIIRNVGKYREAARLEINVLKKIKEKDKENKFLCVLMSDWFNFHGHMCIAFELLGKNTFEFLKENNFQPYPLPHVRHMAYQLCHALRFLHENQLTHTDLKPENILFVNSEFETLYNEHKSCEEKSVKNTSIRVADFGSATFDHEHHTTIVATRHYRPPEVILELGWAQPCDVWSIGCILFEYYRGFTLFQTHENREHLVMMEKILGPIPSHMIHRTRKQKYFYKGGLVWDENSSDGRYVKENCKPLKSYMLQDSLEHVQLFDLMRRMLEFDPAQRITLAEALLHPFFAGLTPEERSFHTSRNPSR
Serine/threonine-protein kinase haspin (Homo sapiens), sequence (Q8TF76 whole entry): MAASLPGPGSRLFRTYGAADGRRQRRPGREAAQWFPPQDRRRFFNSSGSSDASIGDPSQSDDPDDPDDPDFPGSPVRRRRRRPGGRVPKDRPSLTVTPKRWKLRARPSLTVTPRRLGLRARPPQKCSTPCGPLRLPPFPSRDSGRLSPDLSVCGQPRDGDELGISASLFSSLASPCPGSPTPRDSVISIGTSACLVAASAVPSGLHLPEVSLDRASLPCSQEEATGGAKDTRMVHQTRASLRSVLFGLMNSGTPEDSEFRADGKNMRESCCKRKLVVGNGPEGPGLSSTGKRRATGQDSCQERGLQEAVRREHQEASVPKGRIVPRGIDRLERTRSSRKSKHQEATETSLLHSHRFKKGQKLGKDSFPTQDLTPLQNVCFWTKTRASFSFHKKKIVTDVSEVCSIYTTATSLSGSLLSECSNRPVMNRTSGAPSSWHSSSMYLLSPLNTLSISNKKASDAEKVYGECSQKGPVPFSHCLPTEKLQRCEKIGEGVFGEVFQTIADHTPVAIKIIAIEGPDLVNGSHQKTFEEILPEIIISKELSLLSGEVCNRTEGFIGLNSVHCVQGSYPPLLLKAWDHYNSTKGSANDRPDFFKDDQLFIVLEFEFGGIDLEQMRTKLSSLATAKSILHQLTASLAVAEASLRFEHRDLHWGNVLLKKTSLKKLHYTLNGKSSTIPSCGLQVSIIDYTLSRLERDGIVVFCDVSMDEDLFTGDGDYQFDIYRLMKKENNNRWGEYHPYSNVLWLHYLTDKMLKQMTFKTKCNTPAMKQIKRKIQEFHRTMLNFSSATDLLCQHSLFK
Tyrosine-protein kinase Fer (Homo sapiens), sequence (P16591 whole entry, looked up): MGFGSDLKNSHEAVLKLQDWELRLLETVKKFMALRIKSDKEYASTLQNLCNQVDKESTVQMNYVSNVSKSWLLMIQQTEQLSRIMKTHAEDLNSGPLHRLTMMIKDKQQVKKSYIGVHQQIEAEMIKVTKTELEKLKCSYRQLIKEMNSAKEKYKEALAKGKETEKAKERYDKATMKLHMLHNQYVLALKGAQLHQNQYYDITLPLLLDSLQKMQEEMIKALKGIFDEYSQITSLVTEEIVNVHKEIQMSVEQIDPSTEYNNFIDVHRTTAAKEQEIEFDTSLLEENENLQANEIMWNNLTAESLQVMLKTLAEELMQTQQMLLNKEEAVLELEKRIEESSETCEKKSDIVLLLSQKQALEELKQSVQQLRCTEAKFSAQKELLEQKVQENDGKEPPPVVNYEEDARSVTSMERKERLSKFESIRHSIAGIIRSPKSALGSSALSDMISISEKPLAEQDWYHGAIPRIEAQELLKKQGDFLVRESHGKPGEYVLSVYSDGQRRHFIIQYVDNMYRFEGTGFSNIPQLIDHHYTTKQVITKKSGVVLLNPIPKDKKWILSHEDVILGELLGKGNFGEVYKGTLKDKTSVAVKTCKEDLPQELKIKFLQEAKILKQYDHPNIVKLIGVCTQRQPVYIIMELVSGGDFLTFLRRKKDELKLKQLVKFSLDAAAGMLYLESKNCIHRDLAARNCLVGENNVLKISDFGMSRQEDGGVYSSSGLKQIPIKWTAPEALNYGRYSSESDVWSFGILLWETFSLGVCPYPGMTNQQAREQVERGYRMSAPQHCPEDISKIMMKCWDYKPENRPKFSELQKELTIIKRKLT
RAC-alpha serine/threonine-protein kinase (Homo sapiens), sequence (P31749 whole entry): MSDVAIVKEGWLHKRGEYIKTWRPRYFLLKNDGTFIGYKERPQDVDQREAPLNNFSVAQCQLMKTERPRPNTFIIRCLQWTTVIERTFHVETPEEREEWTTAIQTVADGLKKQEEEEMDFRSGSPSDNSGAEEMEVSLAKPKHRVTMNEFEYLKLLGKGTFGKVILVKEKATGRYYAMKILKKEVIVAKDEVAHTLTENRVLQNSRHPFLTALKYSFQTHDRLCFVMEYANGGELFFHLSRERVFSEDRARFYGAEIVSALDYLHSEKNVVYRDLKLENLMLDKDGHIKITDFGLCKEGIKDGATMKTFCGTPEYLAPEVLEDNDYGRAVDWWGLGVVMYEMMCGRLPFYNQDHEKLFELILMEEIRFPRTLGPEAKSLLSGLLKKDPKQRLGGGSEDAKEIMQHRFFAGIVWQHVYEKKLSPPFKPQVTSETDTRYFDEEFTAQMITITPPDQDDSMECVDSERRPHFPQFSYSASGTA
Serine/threonine-protein kinase 38-like (Homo sapiens), sequence (Q9Y2H1 2-464 limits assumed): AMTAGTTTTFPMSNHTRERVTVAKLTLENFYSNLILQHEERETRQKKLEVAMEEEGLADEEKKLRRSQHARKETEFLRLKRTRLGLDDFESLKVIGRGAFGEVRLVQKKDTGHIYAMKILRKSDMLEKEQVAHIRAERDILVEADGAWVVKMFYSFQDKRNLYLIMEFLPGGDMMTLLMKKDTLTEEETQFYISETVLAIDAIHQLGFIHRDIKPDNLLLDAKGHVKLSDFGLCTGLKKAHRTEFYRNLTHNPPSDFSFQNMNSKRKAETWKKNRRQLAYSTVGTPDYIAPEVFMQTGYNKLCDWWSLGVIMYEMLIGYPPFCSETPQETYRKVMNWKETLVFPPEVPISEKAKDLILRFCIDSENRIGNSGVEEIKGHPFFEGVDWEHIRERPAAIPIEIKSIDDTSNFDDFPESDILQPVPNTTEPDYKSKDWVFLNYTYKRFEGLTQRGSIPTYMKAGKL
cAMP-dependent protein kinase catalytic subunit PRKX (Homo sapiens), sequence (P51817 whole entry): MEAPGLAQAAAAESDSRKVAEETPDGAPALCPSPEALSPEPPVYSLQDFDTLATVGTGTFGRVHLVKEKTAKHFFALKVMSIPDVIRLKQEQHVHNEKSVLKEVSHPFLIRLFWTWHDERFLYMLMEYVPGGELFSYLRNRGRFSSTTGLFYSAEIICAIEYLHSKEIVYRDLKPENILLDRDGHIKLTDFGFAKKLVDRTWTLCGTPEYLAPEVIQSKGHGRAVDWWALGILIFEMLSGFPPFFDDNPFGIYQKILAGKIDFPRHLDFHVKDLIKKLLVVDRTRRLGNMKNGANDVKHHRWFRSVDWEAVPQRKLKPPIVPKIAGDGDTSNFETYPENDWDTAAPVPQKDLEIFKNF

Q: Which Activity [1] does the source give for `O=C1c2ccc(Nc3ccc(F)cc3F)cc2CCc2ccc(OC[C@H](O)CO)cc21` [Skepinone-L] here?
A: 92%

Q: What about the Activity [2] of the same compound?
A: 99%

Q: What about the Activity [3] of the same compound?
A: 100%

Q: And the Activity [4]?
A: 97%

Q: And the Activity [5]?
A: 95%

Q: And the Activity [6]?
A: 93%

Q: What about the Activity [7] of the same compound?
A: 102%

Q: What about the Activity [8] of the same compound?
A: 88%

Q: What about the Activity [9] of the same compound?
A: 95%

Q: And the Activity [10]?
A: 113%

Q: What about the Activity [11] of the same compound?
A: 101%

Q: What about the Activity [12] of the same compound?
A: 82%

Q: What about the Activity [13] of the same compound?
A: 69%

Q: And the Activity [14]?
A: 79%

Q: And the Activity [15]?
A: 77%

Q: What about the Activity [16] of the same compound?
A: 102%

Q: And the Activity [17]?
A: 100%

Q: What about the Activity [18] of the same compound?
A: 102%

Q: What about the Activity [19] of the same compound?
A: 77%
